We go through two compounds from patent US5446029A, “Anti-retroviral activity of 2',3'-dideoxy-3'-fluoronucleosides” (Medivir AB, priority 1986, dated 1995).

Read-outs that look alike come from different tables or passages of the source.

The target of test [1] is DNA polymerase of hepatitis B virus (HBV) (Hepatitis B virus genotype D subtype ayw, UniProt P03156). The test can be described thus: Inhibition of hepatitis B virus (HBV) DNA polymerase, cell free assay (Test I). The test is classed as biochemical. The text has this: The HBV associated DNA polymerase activity can be measured in vitro (Kaplan et al., J. Virol., 12,995-1005, 1973). A slight modification of this method has been used to test the substance for inhibition of this DNA polymerase activity. (Nordenfelt E., (Oberg, B., Helgstrand E. and Miller E. Acta path., Microbiol. Scand. Sect B, 88:169-175, 1980). With this assay the 3'-deoxy-3'-fluorothymidine-5'-triphosphate has been tested, instead of the prodrug 3'-deoxy- 3'-fluorothymidine, to evaluate its potential against hepatitis B virus DNA polymerase.
DNA polymerase of hepatitis B virus (HBV), sequence (P03156 whole entry): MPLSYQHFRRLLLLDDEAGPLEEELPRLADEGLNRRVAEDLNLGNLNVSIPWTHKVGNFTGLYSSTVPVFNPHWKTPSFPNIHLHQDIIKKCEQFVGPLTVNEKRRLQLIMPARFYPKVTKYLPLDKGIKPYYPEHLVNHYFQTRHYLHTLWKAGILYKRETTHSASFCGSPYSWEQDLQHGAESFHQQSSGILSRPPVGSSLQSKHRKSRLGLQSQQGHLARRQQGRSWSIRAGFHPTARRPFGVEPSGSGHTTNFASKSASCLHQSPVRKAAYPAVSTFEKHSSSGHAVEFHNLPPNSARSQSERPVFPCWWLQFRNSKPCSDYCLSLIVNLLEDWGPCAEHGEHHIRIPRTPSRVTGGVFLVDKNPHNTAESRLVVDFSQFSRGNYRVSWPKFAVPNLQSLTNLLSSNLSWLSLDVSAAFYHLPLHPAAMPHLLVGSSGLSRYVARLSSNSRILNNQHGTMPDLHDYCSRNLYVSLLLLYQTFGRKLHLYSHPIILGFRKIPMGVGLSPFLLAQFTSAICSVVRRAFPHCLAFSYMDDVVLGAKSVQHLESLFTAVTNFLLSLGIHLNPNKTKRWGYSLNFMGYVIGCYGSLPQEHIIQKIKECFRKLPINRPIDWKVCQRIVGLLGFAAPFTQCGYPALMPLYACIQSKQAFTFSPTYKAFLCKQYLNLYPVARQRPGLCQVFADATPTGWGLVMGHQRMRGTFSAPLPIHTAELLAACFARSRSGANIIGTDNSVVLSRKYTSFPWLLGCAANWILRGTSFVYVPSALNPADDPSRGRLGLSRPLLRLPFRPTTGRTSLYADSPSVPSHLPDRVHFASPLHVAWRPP
3'-deoxy-3'-fluorothymidine-5'-triphosphate was added to the final concentrations of 0.01 μM, 0.05 μM, 0.1 μM, 0.5 μM and 1.0 μM in the reaction mixture. The inhibition is calculated after 3 hours incubation at 37° C. and based on cpm compared to control with added water.

Test [2] has as its target T1, reverse transcriptase of HIV (HTLV-III/LAV) (Human immunodeficiency virus type 1 group M subtype B, UniProt P04585).
T1 construct: reverse transcriptase of HIV (HTLV-III/LAV) in cell free assay
The test can be described thus: Inhibition of HIV (HTLV-III/LAV) reverse transcriptase, cell free assay (Test II). The test is classed as biochemical. As for the experimental part: The assay was performed as described by Vrang et Oberg, Antimicrob. Agents Chemother. 29,867-872 (1986).

The test system of test [3] is HIV (HTLV-III/LAV) in H9 cells.
Experimental: MATERIAL AND METHODS; HIV INFECTION OF H9 CELLS
The cells were then pelleted and dispersed in 2.5 ml phosphate buffered saline (PBS) including 2 μg/ml Polybrene. After incubation for 30 min the cells were pelleted and infected with HIV. After an adsorption period of 1 hour the cells were pelleted and washed once with 2.5 ml PBS. […] Samples for reverse transcriptase activity tests were taken as indicated.
1.3 ml samples from the supernatant of each culture were centrifuged at 18 000 rpm in a 55-34 rotor for 1.5 hours and the virus pellet resuspended in 100 μl buffer containing 50 mM Tris-HC1, pH 7.5; 35 mM KC1; 4 mM DTT; 1 mM EDTA; 1.3 % Triton X-100.50 μl samples were taken to the reverse transcriptase activity tests and analyzed in a 100 μl reaction mixture containing 75 mM Tris-HC1, pH 8.0; 60 mM KC1; 6.2 mM MgC12 ; 6 mM DTT; 0.5 mM EDTA; 0.65 % Triton X-100; 100 μg/ml BSA; 25 μCi/ml ^3 H-dTTP (spec activity 80 Ci/mmol); 2.5 μg/ml (dT)12-18 ; and 2.0 μg/ml (rA)n. Incubation was for 1 hour at 37° C. and the TCA-insoluble product precipitated onto Whatman GF/A filter papers, washed and dried, and counted in a liquid scintillation counter.
Test [4] relates to DNA synthesis. The following applies: Journal f. prakt. Chemie, Vol. 315, 895-900 (1973); cited from earlier work.

What is called inhibition is the change of the read-out against control, counted positive when it falls. Regarding `Cc1cn([C@H]2C[C@H](F)[C@@H](COP(=O)(O)OP(=O)(O)OP(=O)(O)O)O2)c(=O)[nH]c1=O` [3'-deoxy-3'-fluorothymidine-5'-triphosphate], the inhibition at 1 µM in test [1] (read-out: % inhibition of HBV DNA polymerase activity) amounted to 88%. Further, 0.01 µM produced 12% inhibition in test [2] (0.01 μM). For the same compound, in test [2] (0.05 μM), at 0.05 µM the inhibition was 27%. Also, the inhibition at 0.1 µM in test [2] (0.1 μM) came out at 38%.
In the case of `Cc1cn([C@H]2C[C@H](F)[C@@H](CO)O2)c(=O)[nH]c1=O`, the “apparent ID50-value” in test [1] (from Table I, tested as 5'-triphosphate, 3 hours at 37° C.) was 160 nM. Further, the “ID50-value with regard to the activity of HIV reverse transcriptase” value in test [2] (by extrapolation from Table II, tested as 5'-triphosphate) was 200 nM. In addition, the Reverse transcriptase activity came to 0.5 cpm × 10^-3 in test [3] (0.01 μM, day 4 post-infection, untreated 0.9); 1.3 cpm × 10^-3 in test [3] (0.01 μM, day 8 post-infection, untreated 19); 1.9 cpm × 10^-3 in test [3] (0.01 μM, day 11 post-infection, untreated 17); 2.7 cpm × 10^-3 in test [3] (0.01 μM, day 15 post-infection, untreated 11); 28 cpm × 10^-3 in test [3] (0.01 μM, day 18 post-infection, untreated 27); 52 cpm × 10^-3 in test [3] (0.01 μM, day 22 post-infection, untreated 46). The Reverse transcriptase activity in test [3] (0.01 μM, day 29 post-infection, untreated 16) came to 21 cpm × 10^-3; in test [3] (0.05 μM, day 4 post-infection, untreated 0.9), 0.3 cpm × 10^-3; in test [3] (0.05 μM, day 8 post-infection, untreated 19), 0.3 cpm × 10^-3; in test [3] (0.05 μM, day 11 post-infection, untreated 17), 0.4 cpm × 10^-3; in test [3] (0.05 μM, day 15 post-infection, untreated 11) it was 0.6 cpm × 10^-3; in test [3] (0.05 μM, day 18 post-infection, untreated 27), 0.5 cpm × 10^-3. Moreover, the Reverse transcriptase activity in test [3] (0.05 μM, day 22 post-infection, untreated 46) turned out to be 1.6 cpm × 10^-3; in test [3] (0.05 μM, day 29 post-infection, untreated 16), 3.1 cpm × 10^-3; in test [3] (0.1 μM, day 4 post-infection, untreated 0.9) it was 0.2 cpm × 10^-3; in test [3] (0.1 μM, day 8 post-infection, untreated 19) it was 0.2 cpm × 10^-3; in test [3] (0.1 μM, day 11 post-infection, untreated 17) it was 0.5 cpm × 10^-3; in test [3] (0.1 μM, day 15 post-infection, untreated 11), 0.4 cpm × 10^-3. In addition, the Reverse transcriptase activity is recorded as 0.4 cpm × 10^-3 in test [3] (0.1 μM, day 18 post-infection, untreated 27); 0.2 cpm × 10^-3 in test [3] (0.1 μM, day 22 post-infection, untreated 46); 0.2 cpm × 10^-3 in test [3] (0.1 μM, day 29 post-infection, untreated 16); 0.3 cpm × 10^-3 in test [3] (0.5 μM, day 4 post-infection, untreated 0.9); 0.3 cpm × 10^-3 in test [3] (0.5 μM, day 8 post-infection, untreated 19); 0.5 cpm × 10^-3 in test [3] (0.5 μM, day 11 post-infection, untreated 17). Further, the Reverse transcriptase activity was 0.3 cpm × 10^-3 in test [3] (0.5 μM, day 15 post-infection, untreated 11); 0.6 cpm × 10^-3 in test [3] (0.5 μM, day 18 post-infection, untreated 27); 0.1 cpm × 10^-3 in test [3] (0.5 μM, day 22 post-infection, untreated 46); 0.2 cpm × 10^-3 in test [3] (0.5 μM, day 29 post-infection, untreated 16); 0.3 cpm × 10^-3 in test [3] (1.0 μM, day 4 post-infection, untreated 0.9); 0.2 cpm × 10^-3 in test [3] (1.0 μM, day 8 post-infection, untreated 19). In addition, the Reverse transcriptase activity in test [3] (1.0 μM, day 11 post-infection, untreated 17) is 0.5 cpm × 10^-3; in test [3] (1.0 μM, day 15 post-infection, untreated 11), 0.4 cpm × 10^-3; in test [3] (1.0 μM, day 18 post-infection, untreated 27) it was 0.5 cpm × 10^-3; in test [3] (1.0 μM, day 22 post-infection, untreated 46), 0.1 cpm × 10^-3; in test [3] (1.0 μM, day 29 post-infection, untreated 16) it was 0.2 cpm × 10^-3. For the same compound, the “effect on reverse transcriptase activity of HIV (in words)” value is reported as “enzyme activity was not detected” in test [3] (0.01 μM, up to 11 days); “no significant enzyme activity was detected” in test [3] (0.05 μM, up to 22 days); “completely prevents the enzyme activity” in test [3] (0.1 μM and higher concentrations, during at least 29 days). For the same compound, in test [4], the “cytostatic and virustatic activity” value is “cytostatic and virustatic activity as selective inhibitor of DNA synthesis”.
